{"source": "patent US20260215425A1", "about": "“NITRIFICATION INHIBITORS” (The University of Melbourne, priority 2022, published 2026)", "key": {"[1]": {"target": "T1, hydroxylamine oxireductase (HOA) (Nitrosomonas europaea, UniProt Q50925)", "T1 construct": "N. europaea and N. multiformis contain naturally both enzymes; endogenous in cells; host or cells: N. europaea pure culture (whole cells in NaPB)", "T1 sequence (Q50925 25-570)": "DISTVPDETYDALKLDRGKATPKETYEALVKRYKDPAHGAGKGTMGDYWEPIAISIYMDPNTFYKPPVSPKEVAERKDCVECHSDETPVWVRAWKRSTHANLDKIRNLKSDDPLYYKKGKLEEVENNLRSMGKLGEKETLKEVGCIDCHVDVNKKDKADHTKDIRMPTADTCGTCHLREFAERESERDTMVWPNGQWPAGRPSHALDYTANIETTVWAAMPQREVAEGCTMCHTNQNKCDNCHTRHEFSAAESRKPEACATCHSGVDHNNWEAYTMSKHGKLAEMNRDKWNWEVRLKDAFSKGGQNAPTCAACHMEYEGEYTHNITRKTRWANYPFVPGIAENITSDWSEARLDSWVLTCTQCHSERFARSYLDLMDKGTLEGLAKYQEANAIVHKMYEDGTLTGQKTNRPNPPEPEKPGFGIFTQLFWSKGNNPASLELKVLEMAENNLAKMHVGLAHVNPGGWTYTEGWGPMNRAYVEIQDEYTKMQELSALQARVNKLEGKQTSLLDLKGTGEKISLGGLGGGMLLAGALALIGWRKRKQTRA", "assay": "standard nitrification inhibition assay with NH2OH as substrate", "type": "cell-based, N. europaea", "conditions": "substrate NH2OH 3 mM, [inhibitor]=0.3 mM, pH 7.5, 30° C., 60 min; read-out: % Inhibition NE"}, "N. europaea [2]": {"tested_on": "N. europaea", "assay": "acute toxicity test (LIVE/DEAD stain)", "type": "cell-based", "conditions": "[4-MPT]=1.5 mM (50 mol % of [NH4+]), [NH4+]=3 mM, 12 h", "description": "Cells were harvested using the ‘standard cell harvesting protocol’. The bacteria solution was adjusted to an OD600=0.8 (100 μg/L protein). The solution was divided into 1 mL aliquots and transferred to a 24-well tissue culture plate (Greiner Cellstar®, polystyrene Tissue Culture treated). Each well contained 980 μL of bacterial solution, 10 μL of a 150 mM aqueous (NH4)2SO4 solution and 10 μL of a 150 mM inhibitor solution. […] After incubation, cells were transferred into a centrifuge tube and sedimented at 10,000 rpm for 10 minutes. The supernatant was discarded, and cells were re-suspended in 1 mL NaPB. A 5 μL aliquot was transferred into a 96-well plate and the bacterial stain (LIVE/DEAD™ BacLight™ Bacterial Viability Kit for microscopy, ThermoFisher Scientific) was added following the manufacturer's guideline. 10 μL of the solution was transferred onto a microscopic slide (Fisher Scientific, Australia, microscope slides 7.6 cm×2.5 cm (L×W), thickness 1-1.2 mm). Ten images were taken per treatment with a fluorescence microscope (Leica DM6000, Germany) using the red filter setting (excitation:\n575/30 nm (dichromatic) DC: 600; emission: 635/40 nm) and green channel using filter setting (excitation: 500/20 nm DC: 515; emission: 535/30 nm) to detect dead and live cells respectively. The percentage of live and dead cells was calculated via eqns."}, "[3]": {"tested_on": "hydroxylamine oxireductase (HOA)", "assay": "standard nitrification inhibition assay with NH2OH as substrate", "type": "cell-based, N. multiformis", "conditions": "substrate NH2OH 3 mM, [inhibitor]=0.3 mM, pH 7.5, 30° C., 60 min"}, "N. europaea [4]": {"tested_on": "N. europaea", "assay": "mode of inhibition, Michaelis-Menten kinetics of NO2- production", "type": "cell-based", "conditions": "for Km: read-out: Km(app)", "description": "These studies were performed using a modified procedure of that described earlier. In FIG. 4a, the rate of NO2^− production was measured as a function of [NH4^+] to determine whether the inhibitor follows Michaelis-Menten kinetics. The [NH4^+] was 0.003 mM, 0.03 mM, 0.5 mM, 1.5 mM, 3 mM, 10 mM, 15 mM and 30 mM. [4-MPT] remained constant at 0.3 mM. The Michaelis-Menten plots show saturation kinetics, where the NO2 production became independent of [NH4^+] beyond 0.5 mmol L^−1.\nMode of inhibition studies with remaining inhibitors N001, N003, N014 and N018 were conducted as a proof of concept."}, "[5]": {"conditions": "inhibitor concentration 37.5 μM"}, "[6]": {"conditions": "inhibitor concentration 75.0 μM"}}, "note": "Read-outs that look alike come from different tables or passages of the source."}
{"smiles": "C#CCn1cc(C)nn1", "note": "[Compound 4-MPT, 4-Methyl-1-(prop-2-yn-1yl)-1H-1,2,3-triazole]", "values": [{"measurement": "inhibition at 300 µM", "setting": "[1]", "value": "28 ± 3", "unit": "%"}, {"measurement": "% Dead", "setting": "N. europaea [2]", "value": "25 ± 8", "unit": "%"}, {"measurement": "% Live", "setting": "N. europaea [2]", "value": "75 ± 8", "unit": "%"}, {"measurement": "% Inhibition NM", "setting": "[3]", "value": "33 ± 4", "unit": "%"}, {"measurement": "mode of inhibition", "setting": "N. europaea [4]; NO2- production against [NH4+]", "value": "non-competitive inhibition mode"}, {"measurement": "Vmax(app)", "setting": "N. europaea [4]; [5]", "value": "52.7 ± 2.0 μmol (mg protein min)^−1"}, {"measurement": "Km", "setting": "N. europaea [4]; [5]", "value": "30.2 ± 0.3", "unit": "µM"}, {"measurement": "Vmax(app)", "setting": "N. europaea [4]; [6]", "value": "39.2 ± 2.0 μmol (mg protein min)^−1"}, {"measurement": "Km", "setting": "N. europaea [4]; [6]", "value": "23.7 ± 4", "unit": "µM"}]}
